Nine compounds from ChEMBL document CHEMBL1123880, “Beta-adrenoceptor antagonist activity of bivalent ligands. 1. Diamide analogues of practolol” (J Med Chem, 1987) can be followed below.

Test [1] addresses Beta-1 adrenergic receptor (Rattus norvegicus) (UniProt P18090). The conditions noted are these: Heart, Membrane.
Description: Apparent dissociation constant towards beta-1 adrenergic receptor in rat heart membranes using (2-6)x10E-9M of [3AH]-DHA in the presence or absence of 10e-5 M (+/-) propranolol.
Test [2] concerns the target Beta-2 adrenergic receptor (Rattus norvegicus) (UniProt P10608). As to conditions: Lung, Membrane.
Description: Apparent dissociation constant towards beta-2 adrenergic receptor in rat lung membranes using (2-6)x10E-9M of [3AH]-DHA in the presence or absence of 10e-5 M (+/-) propranolol.
The species entered for another test is Rattus norvegicus. Briefly: Ratio of dissociation constant KD' of rat lung to KD' of rat heart. The class given is tissue-based.

Chain of Beta-1 adrenergic receptor (Rattus norvegicus) (P18090 whole entry, looked up): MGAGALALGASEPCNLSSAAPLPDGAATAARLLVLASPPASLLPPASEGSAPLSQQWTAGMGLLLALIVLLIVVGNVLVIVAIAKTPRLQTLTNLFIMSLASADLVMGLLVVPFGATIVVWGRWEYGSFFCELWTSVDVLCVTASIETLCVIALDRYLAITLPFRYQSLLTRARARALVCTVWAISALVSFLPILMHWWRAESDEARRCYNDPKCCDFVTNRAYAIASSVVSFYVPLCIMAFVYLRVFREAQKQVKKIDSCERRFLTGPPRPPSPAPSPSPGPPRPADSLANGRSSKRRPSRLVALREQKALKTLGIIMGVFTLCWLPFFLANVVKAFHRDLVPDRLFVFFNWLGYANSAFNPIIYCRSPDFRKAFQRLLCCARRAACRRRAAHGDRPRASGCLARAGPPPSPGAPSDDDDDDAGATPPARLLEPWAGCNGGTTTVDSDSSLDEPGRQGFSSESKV
Chain of Beta-2 adrenergic receptor (Rattus norvegicus) (P10608 whole entry, looked up): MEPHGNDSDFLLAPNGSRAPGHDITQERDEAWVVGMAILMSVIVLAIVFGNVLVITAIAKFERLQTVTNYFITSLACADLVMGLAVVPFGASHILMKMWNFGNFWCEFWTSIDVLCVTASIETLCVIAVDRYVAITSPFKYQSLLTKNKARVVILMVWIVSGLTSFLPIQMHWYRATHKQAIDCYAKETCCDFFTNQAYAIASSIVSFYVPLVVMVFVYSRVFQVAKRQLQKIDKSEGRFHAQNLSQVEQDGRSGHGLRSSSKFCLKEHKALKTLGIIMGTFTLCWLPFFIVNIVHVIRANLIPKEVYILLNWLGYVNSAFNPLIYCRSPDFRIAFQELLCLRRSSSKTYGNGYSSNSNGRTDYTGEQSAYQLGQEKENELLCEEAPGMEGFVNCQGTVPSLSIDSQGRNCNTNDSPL

As to `CC(C)NCC(O)COc1ccc(NC(=O)CNCCCCNCC(=O)Nc2ccc(OCC(O)CNC(C)C)cc2)cc1` (configuration not stated), the results for the KD' in test [1] and in test [2] were 32.2 µM and 186 µM, respectively. For the same compound, the Ratio in the test listed under Rattus norvegicus was determined as 5.8.

Regarding `CC(C)NCC(O)COc1ccc(NC(=O)CCCCC(=O)Nc2ccc(OCC(O)CNC(C)C)cc2)cc1` (configuration not stated), the KD' in test [1] is 9 µM; in test [2] it was 67.5 µM. Also, the Ratio in the test listed under Rattus norvegicus came out at 7.5.

As to `CC(C)NCC(O)COc1ccc(NC(=O)CN2CCN(CC(=O)Nc3ccc(OCC(O)CNC(C)C)cc3)CC2)cc1` (configuration not stated), the KD' amounted to 2.1 µM in test [1] and 28.1 µM in test [2]. For the same compound, in the test listed under Rattus norvegicus, the Ratio came to 13.4.

Take `CC(C)NCC(O)COc1ccc(NC(=O)CNCCCCCCCCNCC(=O)Nc2ccc(OCC(O)CNC(C)C)cc2)cc1` (configuration not stated): the values for the KD' in test [1] and in test [2] were 0.5 µM and 3.9 µM, respectively. Besides, the Ratio in the test filed under Rattus norvegicus was found to be 7.8.

As to `CC(C)NCC(O)COc1ccc(NC(=O)CNCCCCCCNCC(=O)Nc2ccc(OCC(O)CNC(C)C)cc2)cc1` (configuration not stated), the KD' in test [1] stood at 5 µM; in test [2], 28.1 µM. For the same compound, the Ratio in the test listed under Rattus norvegicus worked out at 5.6.

In the case of `CC(=O)Nc1ccc(OCC(O)CNC(C)C)cc1` (configuration not stated), the figures for the KD' in test [1] and in test [2] were 6.2 µM and 36.5 µM, respectively. Moreover, the Ratio in the test listed under Rattus norvegicus was 5.9.

With `CC(C)NCC(O)COc1ccc(NC(=O)CCCCCCCCC(=O)Nc2ccc(OCC(O)CNC(C)C)cc2)cc1` (configuration not stated), the results for the KD' in test [1] and in test [2] were 0.1 µM and 1.4 µM, respectively. The Ratio in the test listed under Rattus norvegicus turned out to be 14.

For the compound `CC(C)NCC(O)COc1ccc(NC(=O)CCC(=O)Nc2ccc(OCC(O)CNC(C)C)cc2)cc1` (configuration not stated), the KD' is 16.3 µM in test [1] and 28.1 µM in test [2]. Moreover, the Ratio in the test filed under Rattus norvegicus is 1.7.

As for `CC(C)NCC(O)COc1ccc(NC(=O)CCCCCCC(=O)Nc2ccc(OCC(O)CNC(C)C)cc2)cc1` (configuration not stated), the KD' is 4.4 µM in test [1] and 3.9 µM in test [2]. In addition, the Ratio in the test filed under Rattus norvegicus amounted to 0.9.
